Assay results from patent US20140018431A1 (priority 2007, published 2014).

Columns and labels:
airway smooth muscle = conditions: literature (Belvisi, 1998); cited from earlier work
[1] = test system: MMP-9 (matrix metalloproteinase 9); assay: MMP-9 biomarker, patients with PAH, 12 weeks of treatment; assay type: in vivo, human; conditions: treatment for 12 weeks
Experimental: (§1) In addition, treatment with treprostinil is shown to have positive outcome in the six minute walk test described above.
(§2) 44 patients with PAH received study drug (Remodulin or placebo). 30 patients received Remodulin and 14 received placebo. A 12-week trial was conducted. The mean dose of Remodulin received was 72.5 ng/kg/min at Week 12 (compared to 80.0 ng/kg/min placebo-equivalent). Remodulin produced an 93.0 meter median improvement in the six-minute walk compared to placebo, Hodges-Lehmann estimate, with a 95% CI of 7.0 to 187.0 (p=0.0077) from nonparametric ANCOVA.
(§3) Baseline patients with PAH appeared to have higher-than-normal levels of MMP-9, Ang-2, VEG-F, and PDGF (matrix metalloproteinase 9, angiopoetin-2, vascular endothelium-derived growth factor, and platelet-derived growth factor, respectively).
Further, there was a statistically significant correlation between the degree of decrease in Ang-2 and the degree of improvement in the six-minute walk test.

[2] = test system: VEG-F (vascular endothelium-derived growth factor); assay: Serum VEG-F biomarker, patients with PAH, 12 weeks of treatment; assay type: in vivo, human; conditions: treatment for 12 weeks
Experimental: as §1, §2, §3

[3] = assay type: in vivo, human; conditions: patients with PAH, 12-week trial
Experimental: The effect of treprostinil (in the form of Remodulin or inhaled treprostinil) on patients is analyzed using the 6-minute walk test with Borg dyspnea score, a standard assessment of exercise capacity and breathlessness in patients with lung disease. See Guyatt, G. Sullivan, M. et al. (Canada Medical Assoc. J. Vol. 132, 1985). The Six-Minute Walk corresponds closely to the demands of everyday activity and is a safe and simple measurement of functional exercise capacity for clinical trials in patients.
The area used for the Six-Minute Walk test should be pre-measured at a minimum of 108 feet (33 meters) in length and at least 6 to 10 feet (2 to 3 meters) in width. The length should be marked with half-yard (0.5 meter) gradations. The area should be well ventilated with air temperature controlled at 20 to 23° C. ([…].).
The tester may be at the starting end of the corridor or at the midpoint of the corridor with a stop-watch. Intermittent rest periods are allowed if the patient can no longer continue. If the patient needs to rest briefly, he/she may stand or sit and then begin again when he/she is sufficiently rested but the clock will continue to run. At the end of six minutes, the tester will call “stop” while simultaneously stopping the watch and then measure the distance walked. The Borg Dyspnea Rating is then administered.
No other instruction or encouragement are given during the test. Eye contact with the patient should be avoided during the test. Following the walk, the person administering the test obtains a rating of dyspnea using the Borg Scale. The person uses the following dialogue:
“I would like to use the following scale to indicate the maximal shortness of breath you had during the walk test (indicate the Borg Scale). […]

Ang-2 (angiopoetin-2) = assay: Serum Ang-2 biomarker, patients with PAH, 12 weeks of treatment; assay type: in vivo, human; conditions: treatment for 12 weeks
Experimental: as §1, §2, §3

[4] = test system: PDGF (platelet-derived growth factor); assay: PDGF biomarker, patients with PAH, 12 weeks of treatment; assay type: in vivo, human; conditions: treatment for 12 weeks
Experimental: as §1, §2, §3

[5] = test system: lung myeloid dendritic cells; conditions: literature (Idzko, 2007), cited from earlier work

In the case of CCCCC[C@H](O)/C=C/[C@@H]1[C@H]2C/C(=C/CCCC(=O)O)O[C@H]2C[C@H]1O [PGI2], the “effect on airway smooth muscle proliferation” value (airway smooth muscle) is listed as “antiproliferative effect”.

In the case of CCCCC[C@H](O)CC[C@@H]1[C@H]2Cc3cccc(OCC(=O)[O-])c3C[C@H]2C[C@H]1O.[Na+] [Remodulin], the “degree of change in MMP-9” value [1] is reported as “not significant”, the “serum VEG-F” value [2] is reported as “significantly decreased” and the “median improvement in the six-minute walk compared to placebo, Hodges-Lehmann estimate” value ([3]; mean dose 72.5 ng/kg/min at Week 12, 95% CI of 7.0 to 187.0, p=0.0077, nonparametric ANCOVA) is reported as 93.0 meter. The “Borg Dyspnea score, median improvement over placebo” value ([3]; p=0.23) was 2.0, the “combined ranking of 6MW/Borg Score Index” value ([3]; vs placebo, p=0.0023) was “significantly improved” and the “serum Ang-2” value (Ang-2 (angiopoetin-2)) was “significantly decreased”. For the same compound, the PDGF [4] was “strong trend toward decreased”.

For CC#CCC(C)[C@H](O)/C=C/[C@@H]1[C@H]2C/C(=C/CCCC(=O)O)C[C@H]2C[C@H]1O (stereo partly shown) [iloprost], the “anti-inflammatory effects in a mouse model of asthma” value [5] is listed as “anti-inflammatory effects” and the “induction of allergen-specific Th2 response in mediastinal lymph nodes” value ([5]; mouse model of asthma) is listed as “abolishing the induction”.
